Measurements taken from patent US12161634B2, “Pyruvate kinase R (PKR) activating compositions” (Novo Nordisk Health Care AG, priority 2020, dated 2024).

Assays:
[1] = Polymorph screening (solid form by XRPD); type: physicochemical
Method: Polymorph screening experiments were performed using a series of crystallization and solid transition methods.
Solid vapor diffusion experiments were conducted using 13 different solvents. Approximately 15 mg of Compound 1 (Type A) was weighed into a 4-mL vial, which was placed into a 20-mL vial with 3 mL of volatile solvent. The 20-mL vial was sealed with a cap and kept at RT for 7 days, allowing solvent vapor to interact with the sample.
Slurry experiments were conducted […] in different solvent systems. About 15 mg of Compound 1 (Type A) was suspended in 0.3 mL of solvent in a 2-mL glass vial. After the suspension was stirred magnetically for 7 days at 4° C., RT or 50° C., the remaining solids were isolated for XRPD analysis (Method A).
Approximately 15 mg of Compound 1 (Type A) was dissolved in an appropriate solvent to obtain a clear solution in a 4-mL vial. This solution was then placed into a 20-mL vial with 3 mL of anti-solvent. The 20-mL vial was sealed with a cap and kept at RT, allowing sufficient time for organic vapor to interact with the solution. After 7 days, solids were isolated for XRPD analysis (Method A).
(§1) Compound 1 (Type A) was weighed into a 3 mL glass vial with the addition of the corresponding solvent or solvent mixture. After being vortexed and ultrasonically shaken, the suspension was filtered, and the filtrate was transferred to a clean 4 mL shell vial. A small amount of Compound 1 (Type A) was added as a seed crystal. Subsequently, the shell vial was sealed with a polyethylene plug with one pinhole and enclosed in a 20 mL glass vial containing 3 mL of the anti-solvent at room temperature for liquid vapor diffusion. The solid forms resulting from the experiments were characterized by XRPD analysis (Method C).
Slow evaporation experiments were performed under 4 conditions. Briefly, about 15 mg of Compound 1 (Type A) was mixed with 1.0-2.5 mL of solvent in a 4-mL glass vial. If the solids were not dissolved completely, suspensions were filtered using a PTFE membrane (pore size of 0.2 μm) and the filtrates were used for the follow-up steps. The visually clear solutions were subjected to evaporation at RT with vials sealed by Parafilm® (3-5 pinholes).
as §1, with “placed” for “enclosed”, “fume hood” for “20 mL glass vial containing 3 mL of the anti-solvent”, “slow evaporation.” for “liquid vapor diffusion.”
A total of 8 anti-solvent addition experiments were carried out. About 15 mg of Compound 1 (Type A) was dissolved in 0.2-4.0 mL of solvent to obtain a clear solution. The solution was magnetically stirred followed by addition of 0.2 mL anti-solvent per step until precipitate appeared or the total amount of anti-solvent reached 15.0 mL. The obtained precipitate was isolated for XRPD analysis (Method A).
A total of 2 reverse anti-solvent addition experiments were carried out. About 15 mg of Compound 1 (type A) was dissolved in 0.2 mL solvent to obtain a clear solution. The solution was added into 2 mL anti-solvent. The obtained precipitate was isolated for XRPD analysis (Method A). Results summarized in Table 16 indicated Type A or a mixture of Type A and amorphous material were generated.
Compound 1 (Type A) was weighed into a 3 mL glass vial with the addition of the corresponding solvent or solvent mixture. After being vortexed and ultrasonically shaken to accelerate dissolution, the suspension was placed in a biochemical incubator and equilibrated at 50° C. for 30 minutes. […]

[2] = Dynamic vapor sorption (DVS); type: physicochemical
Method: Dynamic Vapor Sorption (DVS) was measured with a Surface Measurement System (SMS) DVS Intrinsic.

Solid Form ([1]; liquid vapor diffusion RT 7 days, solvent 1,4-Dioxane, anti-solvent EtOAc): Type A | Solid Form ([1]; liquid vapor diffusion RT 7 days, solvent 1,4-Dioxane, anti-solvent MTBE): Type A | Solid Form ([1]; liquid vapor diffusion RT 7 days, solvent 1,4-Dioxane, anti-solvent MeOH): Type B | Solid Form ([1]; liquid vapor diffusion RT 7 days, solvent 1,4-Dioxane, anti-solvent Toluene): Type A | Solid Form ([1]; liquid vapor diffusion RT 7 days, solvent 1,4-Dioxane, anti-solvent n-Heptane): Type F | Solid Form ([1]; liquid vapor diffusion RT 7 days, solvent Acetone, anti-solvent H2O): Type B | Solid Form ([1]; liquid vapor diffusion RT 7 days, solvent Acetone, anti-solvent IPA): Type A | Solid Form ([1]; liquid vapor diffusion RT 7 days, solvent Acetone, anti-solvent MIBK): Type A | Solid Form ([1]; liquid vapor diffusion RT 7 days, solvent CHCl3, anti-solvent 2-MeTHF): Type A | Solid Form ([1]; liquid vapor diffusion RT 7 days, solvent CHCl3, anti-solvent EtOH): Type A | Solid Form ([1]; liquid vapor diffusion RT 7 days, solvent CHCl3, anti-solvent IPAc): Type A | Solid Form ([1]; liquid vapor diffusion RT 7 days, solvent THF, anti-solvent EtOAc): Type A | Solid Form ([1]; liquid vapor diffusion RT 7 days, solvent THF, anti-solvent MeOH): Type A | Solid Form ([1]; liquid vapor diffusion, seeded, RT, 3.0 mg in 0.5 mL MeOH, anti-solvent MTBE): Type B | Solid Form ([1]; liquid vapor diffusion, seeded, RT, 4.9 mg in 0.5 mL Acetone, anti-solvent MTBE): Type A | Solid Form ([1]; liquid vapor diffusion, seeded, RT, 10.0 mg in 0.5 mL ACN, anti-solvent MTBE): Type B | Solid Form ([1]; liquid vapor diffusion, seeded, RT, 10.1 mg in 0.5 mL ACN, anti-solvent H2O): Type B | Solid Form ([1]; liquid vapor diffusion, seeded, RT, 10.4 mg in 0.5 mL THF, anti-solvent n-pentane): Type D | Solid Form ([1]; liquid vapor diffusion, seeded, RT, 10.8 mg in 0.1 mL DMSO, anti-solvent IPA): Type A | Solid Form ([1]; liquid vapor diffusion, seeded, RT, 10.9 mg in 0.1 mL DMF, anti-solvent IPAc): Type I | Solid Form ([1]; liquid vapor diffusion, seeded, RT, 11.5 mg in 0.5 mL THF, anti-solvent MeOH): Type D | Solid Form ([1]; liquid vapor diffusion, seeded, RT, 12.1 mg in 0.5 mL THF, anti-solvent EtOAc): Type M | Solid Form ([1]; liquid vapor diffusion, seeded, RT, 17.6 mg in 0.5 mL 1,4-dioxane, anti-solvent n-heptane): Type A | Solid Form ([1]; liquid vapor diffusion, seeded, RT, 30.8 mg in 0.2 mL NMP, anti-solvent MTBE): Type J | Solid Form ([1]; liquid vapor diffusion, seeded, RT, 31.9 mg in 0.2 mL DMSO, anti-solvent H2O): Type A | Solid Form ([1]; liquid vapor diffusion, seeded, RT, 32.1 mg in 0.2 mL DMF, anti-solvent Toluene): Type H | Solid Form ([1]; liquid vapor diffusion, seeded, RT, 34.3 mg in 0.3 mL CHCl3, anti-solvent n-pentane): Type A | Solid Form ([1]; slow cooling 50° C. to 5° C., 15.4 mg in 1.5 mL 2-MeTHF): Type K | Solid Form ([1]; slow cooling 50° C. to 5° C., 15.7 mg in 1.5 mL EtOH): Type A | Solid Form ([1]; slow cooling 50° C. to 5° C., 20.3 mg in 1.5 mL EtOAc): Type B | Solid Form ([1]; slow cooling 50° C. to 5° C., 20.5 mg in 1.5 mL MeOH): Type B | Solid Form ([1]; slow cooling 50° C. to 5° C., 39.7 mg in 1.0 mL THF/H2O (1:1 v/v), then kept at 5° C. for 22 days): Type L | Solid Form ([1]; slow cooling 50° C. to 5° C., 40.3 mg in 0.8 mL ACN/H2O (2:1 v/v)): Type B | Solid Form ([1]; slow cooling 50° C. to 5° C., 40.3 mg in 1.0 mL Acetone/n-heptane (3:1 v/v)): Type A | Solid Form ([1]; slow cooling 50° C. to 5° C., 40.4 mg in 1.0 mL 1,4-dioxane/H2O (1:1 v/v)): Type B | Solid Form ([1]; slow cooling 50° C. to 5° C., 40.6 mg in 1.0 mL Acetone/H2O (2:1 v/v)): Type B | Solid Form ([1]; slow evaporation, seeded, RT, 3.0 mg in 1.0 mL MeOH): Type B | Solid Form ([1]; slow evaporation, seeded, RT, 3.2 mg in 0.5 mL EtOAc/2-MeTHF (1:1 v/v)): Type B | Solid Form ([1]; slow evaporation, seeded, RT, 3.2 mg in 1.0 mL EtOAc): Type B | Solid Form ([1]; slow evaporation, seeded, RT, 4.5 mg in 0.5 mL Acetone/EtOH (1:1 v/v)): Type A | Solid Form ([1]; slow evaporation, seeded, RT, 4.6 mg in 0.5 mL Acetone): Type A | Solid Form ([1]; slow evaporation, seeded, RT, 4.7 mg in 0.5 mL Acetone/EtOAc (1:1 v/v)): Type A | Solid Form ([1]; slow evaporation, seeded, RT, 5.0 mg in 0.5 mL ACN/MIBK (1:1 v/v)): Type A | Solid Form ([1]; slow evaporation, seeded, RT, 5.2 mg in 0.5 mL MeOH/Acetone (1:1 v/v)): Type B | Solid Form ([1]; slow evaporation, seeded, RT, 7.3 mg in 0.5 mL DCM/IPAc (1:1 v/v)): Type A | Solid Form ([1]; slow evaporation, seeded, RT, 9.6 mg in 0.5 mL THF/H2O (5:1 v/v)): Type B | Solid Form ([1]; slow evaporation, seeded, RT, 9.8 mg in 0.5 mL ACN/H2O (5:1 v/v)): Type B | Solid Form ([1]; slow evaporation, seeded, RT, 10.0 mg in 0.5 mL ACN): Type B | Solid Form ([1]; slow evaporation, seeded, RT, 10.1 mg in 0.5 mL THF): Type D | Solid Form ([1]; slow evaporation, seeded, RT, 10.7 mg in 0.5 mL THF/EtOH (1:1 v/v)): Type A | Solid Form ([1]; slow evaporation, seeded, RT, 10.8 mg in 0.5 mL DCM/n-heptane (1:1 v/v)): Type A | Solid Form ([1]; slow evaporation, seeded, RT, 11.1 mg in 0.5 mL ACN/EtOAc (1:1 v/v)): Type A | Solid Form ([1]; slow evaporation, seeded, RT, 13.0 mg in 0.5 mL Acetone/H2O (5:1 v/v)): Type B | Solid Form ([1]; slow evaporation, seeded, RT, 13.8 mg in 0.5 mL ACN/EtOH (1:1 v/v)): Type A | Solid Form ([1]; slow evaporation, seeded, RT, 14.4 mg in 0.5 mL ACN/2-MeTHF (1:1 v/v)): Type A | Solid Form ([1]; slow evaporation, seeded, RT, 17.3 mg in 0.5 mL ACN/IPA (4:1 v/v)): Type A | Solid Form ([1]; slow evaporation, seeded, RT, 22.7 mg in 0.5 mL CHCl3/IPA (1:1 v/v)): Type A | Solid Form ([1]; slow evaporation, seeded, RT, 22.9 mg in 0.5 mL CHCl3/toluene (1:1 v/v)): Type A | Solid Form ([1]; slow evaporation, seeded, RT, 27.7 mg in 0.5 mL ACN/n-heptane (10:1 v/v)): Type B | Solid Form ([1]; slow evaporation, seeded, RT, 32.9 mg in 0.5 mL 1,4-dioxane/H2O (4:1 v/v)): Gel | Solid Form ([1]; slurry of Type A 7 days, 1,4-Dioxane/MeOH (v/v, 1:1), 50° C.): Type A | Solid Form ([1]; slurry of Type A 7 days, 1,4-Dioxane/Toluene (v/v, 1:1), 50° C.): Type A | Solid Form ([1]; slurry of Type A 7 days, 1,4-Dioxane, 50° C.): Type A | Solid Form ([1]; slurry of Type A 7 days, 1,4-Dioxane, RT): Type C | Solid Form ([1]; slurry of Type A 7 days, 2-MeTHF, 50° C.): Type A | Solid Form ([1]; slurry of Type A 7 days, ACN/IPA (v/v, 1:3), 50° C.): Type A | Solid Form ([1]; slurry of Type A 7 days, ACN, 4° C.): Type A | Solid Form ([1]; slurry of Type A 7 days, Acetone/H2O (v/v, 1:3), 50° C.): Type B | Solid Form ([1]; slurry of Type A 7 days, Acetone/IPAc (v/v, 1:3), 50° C.): Type A | Solid Form ([1]; slurry of Type A 7 days, Acetone, RT): Type A | Solid Form ([1]; slurry of Type A 7 days, CHCl3/EtOAc (v/v, 1:3), 50° C.): Type A | Solid Form ([1]; slurry of Type A 7 days, CHCl3/MeOH (v/v, 1:3), 50° C.): Type A | Solid Form ([1]; slurry of Type A 7 days, CHCl3/Toluene (1/3), 4° C.): Type B + Type A | Solid Form ([1]; slurry of Type A 7 days, DCM/EtOH (v/v, 1:3), 50° C.): Type A | Solid Form ([1]; slurry of Type A 7 days, DCM/n-Heptane (1/3), 4° C.): Type A | Solid Form ([1]; slurry of Type A 7 days, DMSO/H2O (1/9), RT): Type B | Solid Form ([1]; slurry of Type A 7 days, EtOAc, 50° C.): Type A | Solid Form ([1]; slurry of Type A 7 days, EtOH, 50° C.): Type A | Solid Form ([1]; slurry of Type A 7 days, H2O, 50° C.): Type B | Solid Form ([1]; slurry of Type A 7 days, IPA, 50° C.): Type A | Solid Form ([1]; slurry of Type A 7 days, IPAc, 50° C.): Type A | Solid Form ([1]; slurry of Type A 7 days, MIBK, 50° C.): Type A | Solid Form ([1]; slurry of Type A 7 days, MTBE, 50° C.): Type A | Solid Form ([1]; slurry of Type A 7 days, MeOH, 50° C.): Type B | Solid Form ([1]; slurry of Type A 7 days, THF, 4° C.): Type D | Solid Form ([1]; slurry of Type A 7 days, THF, 50° C.): Type A | Solid Form ([1]; slurry of Type A 7 days, Toluene, 50° C.): Type A | Solid Form ([1]; slurry of Type A 7 days, n-Heptane, 50° C.): Type A | hygroscopicity ([2]; DVS at RT): hygroscopic | water uptake from 40% RH to 80% RH ([2]; DVS, RT): 1.0% | water uptake up to 40% RH ([2]; DVS, up to 40% RH (ambient condition), RT): 3.4% | form change before and after DVS test ([2]; RT, determined by XRPD): No form change
SMILES: O=C([C@H](CO)c1ccccc1)N1CC2=C(C1)CN(S(=O)(=O)c1cnc3c(c1)OCCO3)C2 [Type A, (S)-1-(5-[2H,3H-[1,4]dioxino[2,3-b]pyridine-7-sulfonyl]-1H,2H,3H,4H,5H,6H-pyrrolo[3,4-c]pyrrol-2-yl)-3-hydroxy-2-phenylpropan-1-one]
